What was measured:
[1] = target: T1, K18 aggregates (Tau K18 fragment, amino acids 244 to 372 of human Tau441) (Homo sapiens, UniProt P10636); assay: Tau K18 disaggregation assay by ThT; type: biochemical; conditions: 2 μM K18 aggregates, 160 to 0.04 μM compound, 30 minutes RT, ThT fluorescence; read-out: TauK18 disaggregation EC50
T1 construct: encompassing amino acids 244 to 372 of the longest isoform (2N4R) of human Tau441; host or cells: bacteria
Experimental: Tau K18 Disaggregation Assay by ThT
The Tau K18 fragment, encompassing amino acids 244 to 372 of the longest isoform (2N4R) of human Tau441, was expressed in bacteria and purified or bought from SignalChem. For the K18 disaggregation assay by ThT, 35 μM of recombinant K18 in PBS were aggregated for 24 hours at 37° C. in presence of 50 μM of heparin (Sigma-Aldrich) and 10 mM of DTT (Sigma-Aldrich) under shaking at 750 RPM. Compounds were dissolved in anhydrous dimethyl sulfoxide (DMSO, Sigma-Aldrich) to reach a concentration of 10 mM. K18 aggregates and serial dilutions of compounds were mixed together in PBS (volume 50 μL) to a final concentration of 2 μM of K18 aggregates and from 160 to 0.04 μM of compounds. The mixture was incubated for 30 minutes at room temperature (RT), then 40 μL of this mixture were transferred into a black 384-well plate assay (Perkin-Elmer) and mixed with 10 μL of 100 μM ThT in 250 mM glycine (both from Sigma-Aldrich) in PBS. Fluorescence (relative fluorescence units; RFU) was measured in monoplicate or duplicate on a Tecan reader (excitation: 440 nm; emission: 485 nm). Percentage of K18 disaggregation was then calculated and half maximal effective concentration (EC50) was determined using GraphPad Prism version 5 (GraphPad Software) assuming a one-binding site fitting model.

[2] = target: T2, flTau aggregates (longest isoform of human Tau, 2N4R; 441 amino acids) (Homo sapiens, UniProt P10636); assay: Full-length Tau (flTau) disaggregation assay by Thioflavin T (ThT); type: biochemical; conditions: 2 μM flTau aggregates, 160 to 0.04 μM compound, 30 minutes RT, ThT fluorescence
T2 construct: 35 μM of recombinant full-length (fl)Tau in PBS were aggregated for 24 hours; made in house; host or cells: bacteria
T2 sequence (P10636 1-441 isoform P10636-8): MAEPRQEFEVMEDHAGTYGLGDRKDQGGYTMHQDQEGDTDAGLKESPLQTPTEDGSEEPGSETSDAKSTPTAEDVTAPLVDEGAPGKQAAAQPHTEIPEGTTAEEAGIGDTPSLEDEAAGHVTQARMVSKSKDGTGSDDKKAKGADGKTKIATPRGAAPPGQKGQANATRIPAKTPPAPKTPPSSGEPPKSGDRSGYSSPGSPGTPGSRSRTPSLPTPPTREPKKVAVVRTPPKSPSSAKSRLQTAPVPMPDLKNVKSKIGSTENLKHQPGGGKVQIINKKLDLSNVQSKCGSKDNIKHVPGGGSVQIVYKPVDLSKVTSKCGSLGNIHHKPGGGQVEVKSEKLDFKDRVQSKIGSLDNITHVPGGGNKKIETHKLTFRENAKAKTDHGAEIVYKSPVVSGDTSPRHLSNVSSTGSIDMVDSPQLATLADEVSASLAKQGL
Experimental: Biological Assay Description Full-Length Tau (flTau) Disaggregation Assay by Thioflavin T (ThT)
The longest isoform of human Tau (2N4R; 441 amino acids) was expressed in bacteria and purified. For the Tau disaggregation assay by ThT, 35 μM of recombinant full-length (fl)Tau in PBS were aggregated for 24 hours at 37° C. in presence of 50 μM of heparin (Sigma-Aldrich) and 10 mM of DTT (Sigma-Aldrich) under shaking at 750 RPM. Compounds were dissolved in anhydrous dimethyl sulfoxide (DMSO, Sigma-Aldrich) to reach a concentration of 10 mM.
flTau aggregates and serial dilutions of compounds were mixed together in PBS (volume 50 μL) to a final concentration of 2 μM of flTau aggregates and from 160 to 0.04 μM of compounds. The mixture was incubated for 30 minutes at room temperature (RT), then 40 μL of this mixture were transferred into a black 384-well plate assay (Perkin-Elmer) and mixed with 10 μL of 100 μM ThT in 250 mM glycine (both from Sigma-Aldrich) in PBS. Fluorescence (relative fluorescence units; RFU) was measured in monoplicate or duplicate on a Tecan reader (excitation: 440 nm; emission: 485 nm). Percentage of flTau disaggregation was then calculated and the halfmaximal effective concentration (EC50) was determined using GraphPad Prism version 5 (GraphPad Software) assuming a one-binding site fitting model.

[3] = tested on: human neuroblastoma cell line overexpressing the full-length form of human Tau carrying the P301L mutation; assay: Reduction of intracellular Tau aggregation (AlphaLISA); type: cell-based; conditions: compound at 5 μM, 24 h; aggregated Tau normalized to total Tau, relative to DMSO-treated cells
Experimental: Reduction of Intracellular Tau Aggregation
A human neuroblastoma cell line overexpressing the full-length form of human Tau carrying the P301L mutation was cultured in complete medium [DMEM-F12 4.5 g/L Glutamax (Invitrogen), 15% FBS (Biochrom), 1% Peni/Strep (Invitrogen) supplemented with 2.5 μg/ml of G418 (Sigma-Aldrich) selection antibiotic]. The day before the experiment 5×10^5 cells/well were plated in a 6 well plate in 3 mL of complete medium. The next day, cells were incubated with DMSO or a compound of the present invention at a 5 μM for additional 24 h at 37° C. After incubation, cells were trypsinized, resupsended in 100 μl of homogenization buffer [25 mM Tris-HCl pH 7.4, 150 mM NaCl, 1 mM EDTA, 1 mM EGTA containing phosphatase inhibitors (30 mM NaF, 0.2 mM Na3VO4, 1 nM Okadaic acid, 1 mM PMSF, 5 mM Na4P2O7) and protease inhibitor cocktail (Complete™, Roche)], and then physically lysed with three rapid cycles of freezing and thawing. Samples were then directly tested in the AlphaLISA assay.
Phosphorylated, aggregated, and total Tau were quantified by AlphaLisa using the following antibody pairs: • HT7-Acceptor beads+biotin (BT)-Tau13-Donor beads: Total Tau • HT7-Acceptor beads+biotin (BT)-HT7-Donor beads: Aggregated human Tau
The Tau13 (Abcam) was biotinylated using EZ-Link® NHS-PEO Solid Phase biotinylation kit (Thermo Scientific), while the HT7-biotin was from a commercial source (Thermo Scientific).
For each antibody pairs the concentration of acceptor beads and biotinylated antibodies was optimized. All samples were first tested in a dilution series in PBS in order to identify the linear range and optimal dilution for each sample and assay. For the final protocol, the following reagents were added in a 384-well white OptiPlate (Perkin Elmer): • 5 μL of test diluted sample • 20 μL of the mixture biotin-mAb acceptor beads at the following final concentrations: • HT7-BT at 1.25 nM in combination with HT7-Acc beads at 10 μg/ml • Tau13-BT at 5 nM in combination with HT7-Acc beads at 2.5 μg/ml
After incubation of this mixture at room temperature for 1 h, 25 μL of Streptavidin Donor beads (Perkin Elmer) at 25 μg/mL were added in the dark. Plates were analyzed after 30 min incubation using the EnSpire Alpha instrument and EnSpire Workstation version 3.00.
Data for aggregated Tau were normalized to total Tau and then expressed as percentage of the DMSO-treated cells.

T1 sequence (P10636 561-689): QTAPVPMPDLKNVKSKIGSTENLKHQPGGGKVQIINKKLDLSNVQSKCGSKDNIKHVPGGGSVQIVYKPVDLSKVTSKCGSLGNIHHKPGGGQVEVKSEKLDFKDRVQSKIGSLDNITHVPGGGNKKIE

Row | Compound | EC50 [1] [µM] | EC50 [2] [µM] | % Reduction of intracellular Tau aggregation [3]
1 | CC(C)N1CCc2c(c3ccc(Nc4ccc5nc(N6CCOCC6)sc5c4)nc3n2C)C1 [Example 1] | 10 to 25 | < 10 | + (+ %25 < x < 10)
2 | CN(C)[C@@H]1CCc2c(c3ccc(Nc4ccc5sc(N6CCOCC6)nc5c4)nc3n2C)C1 [Example 2] | < 10 | < 10 | + (+ %25 < x < 10)
3 | CN(C)[C@@H]1CCc2c(c3ccc(Nc4ccc5nc(N6CCOCC6)sc5c4)nc3n2C)C1 [Example 12] | < 10 | < 10 | ++ (++ %50 < x < 25)
